Results reported in patent US20040220270A1, “Methods and composition of treating glaucoma by modulating tyrosinase/L-DOPA pathway” (The Jackson Laboratory, priority 2003, published 2004).
Entries after “also recorded” stand apart in the source; their conditions may differ.

Tested on: Cyp1b1^−/− Tyr^c−2J/c−2J (albino) double mutants
Assay: L-DOPA supplementation via drinking water throughout ocular development; histologic and electron microscopic grading of angle dysgenesis
Format: in vivo, mice
Conditions: for developmental abnormalities in the iridocorneal angle / severe angle dysgenesis (histology): L-DOPA 1 mg/ml in drinking water from gestation until harvest at approximately 4 weeks
Text: Applicant hypothesized that tyrosinase might affect angle development through modulation of L-DOPA levels. Tyrosinase is a monooxygenase that converts tyrosine to L-DOPA and L-DOPA to dopaquinone. L-DOPA affects development and is the precursor of catecholamines, which are important developmental regulators (15-17). To investigate whether L-DOPA is a critical molecule in angle development, Applicant administered water containing L-DOPA or standard drinking water to Cyp1b1^-/- Tyr^c-2J/c-2J (albino) double mutants throughout ocular development [their mothers received this water throughout the period of in utero development (12)]. […] Despite the profound rescue in L-DOPA treated albino Cyp1b1^-/- mice, mild abnormalities of similar severity to those observed in pigmented Cyp1b1^-/- mice remained. […] These include genes that affect L-DOPA levels, affect the metabolism of L-DOPA to other developmentally important molecules or affect the signaling of these molecules in developmental/physiologic pathways. L-DOPA treatment-L-DOPA (dihydroxyphenylalanine, 15,431-8, Aldrich Chemical Company, Inc., Milwaukee, Wis.) was supplied to the animals via their drinking water at a concentration of 1 mg/ml (5, 6). L-DOPA was dissolved into acidic water (pH of 3) to avoid oxidation. Animals were either on L-DOPA for their entire gestation or started on L-DOPA at embryonic day E5.5 (prior to eye formation). Eyes were harvested at approximately 4 weeks of age and L-DOPA treatment was continued until the time of harvest. Freshly made L-DOPA water was supplied every three days. Histologic and electron microscopic analyses-Applicant fixed and processed eyes for plastic sectioning and electron microscopy as previously reported (1, 9). All tissues were harvested from mice at ages after angle formation. For light microscopy, eyes were […] sectioned and up to 56 sections were collected from each of 3 different ocular regions for all eyes. […] Collected regions included nasal lens periphery, central lens, and a region halfway between the lens center and the peripheral lens. Sections were stained with hematoxylin and eosin. Due to the potential for artifact in the delicate tissues analyzed abnormalities had to be present in multiple sections from the same region. Nine to twelve eyes were analyzed for each genotype on each genetic background. Applicant devised a grading scheme to allow comparison between different eyes. Applicant separately assessed the severity of defects affecting Schlemm's canal (SC), trabecular meshwork (TM) and creating synechiae. For each phenotype, Applicant graded 6 similarly spaced sections for each ocular region. Applicant graded the severity of abnormalities in both angles of a section. Thus, Applicant graded 36 angles (6 sections×2 angles×3 regions) from different ocular regions for each eye. Applicant designated a grade of 0, 1, 2, 3, or 4 (increasing in severity from 0 to 4, see below) to each phenotype for each angle. For an eye, the total grade could be any value between 0 and 144 (36 angles×4). […] To assess the difference in the severity of angle dysgenesis between the albino and pigmented eyes, Applicant graded approximately 10 eyes from mice of each Cyp1b1 and Foxc1 genotype. Due to the continuous nature of the grade, Applicant present the data as mean± SEM and compared genotypes using two tailed student t-tests. Applicant checked the consistency of the grading method by assessing 8 random eyes on a second occasion without knowledge of the initial grade. […]

## N[C@@H](Cc1ccc(O)c(O)c1)C(=O)O [L-DOPA, 3,4-dihydroxyphenylalanine]
Cyp1b1^−/− Tyr^c−2J/c−2J mice, B6 background, versus untreated
  developmental abnormalities in the iridocorneal angle / severe angle dysgenesis (histology): alleviated; also recorded: prevent the severe angle dysgenesis
Cyp1b1^−/− Tyr^c−2J/c−2J mice, B6 background, versus untreated, listed as LDOPA
  developmental abnormalities in the iridocorneal angle / severe angle dysgenesis (histology): substantially prevented developmental abnormalities
Cyp1b1^−/− Tyr^c−2J/c−2J mice, B6 background, L-DOPA 1 mg/ml in drinking water, versus untreated
  ultrastructure of the trabecular meshwork (electron micrographs): rescues the ultrastructure of the trabecular meshwork
Cyp1b1^−/− Tyr^c−2J/c−2J mice, L-DOPA 1 mg/ml in drinking water, grade 0-144 per eye, p<0.001 for all assessed phenotypes versus untreated
  mean severity grades of developmental dysgenesis (Schlemm's canal, trabecular meshwork, synechiae): can be alleviated
L-DOPA treated albino Cyp1b1^−/− mice, compared with pigmented Cyp1b1^−/− mice
  abnormalities remaining after L-DOPA treatment: mild abnormalities of similar severity to those observed in pigmented Cyp1b1^−/− mice remained
